This is an account of results in patent US8404723B2, “3-cyano 5-thiazaheteroaryl-dihydropyridine and the use thereof for the treatment of cardiovascular diseases” (Bayer Intellectual Property GmbH, priority 2006, dated 2013).

The assay addresses T1, human mineralocorticoid receptor (MR) (Homo sapiens, UniProt P08235).
T1 construct: expressed in transfected cells
T1 sequence (P08235 734-984 limits assumed): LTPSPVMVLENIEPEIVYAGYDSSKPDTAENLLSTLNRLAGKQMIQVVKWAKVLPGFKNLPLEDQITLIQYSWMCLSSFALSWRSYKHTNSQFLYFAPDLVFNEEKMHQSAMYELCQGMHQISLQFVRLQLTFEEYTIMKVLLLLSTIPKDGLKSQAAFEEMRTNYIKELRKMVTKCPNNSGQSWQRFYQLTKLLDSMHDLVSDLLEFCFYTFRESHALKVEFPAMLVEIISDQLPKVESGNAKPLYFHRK
The experiment in a line: Cellular in vitro assay to determine the inhibitory MR activity (GAL4-MR chimera luciferase reporter in CHO K1 cells). Type of assay: cell-based. To be noted: aldosterone as agonist. The source says: 1. Cellular In Vitro Assay to Determine the Inhibitory MR Activity and MR Selectivity Compared with Other Steroid Hormone Receptors
Antagonists of the human mineralocorticoid receptor (MR) are identified, and the activity of the compounds described herein is quantified with the aid of a recombinant cell line. The cell is originally derived from a hamster ovary epithelial cell (Chinese Hamster Ovary, CHO K1, ATCC: American Type Culture Collection, Va. 20108, USA).
An established chimera system in which the ligand-binding domains of human steroid hormone receptors are fused to the DNA-binding domain of the yeast transcription factor GAL4 is used in this CHO K1 cell line. The GAL4-steroid hormone receptor chimeras produced in this way are cotransfected and stably expressed with a reporter construct in the CHO cells.
To generate the GAL4-steroid hormone receptor chimeras, the GAL4 DNA binding domain (amino acids 1-147) from the vector pFC2-dbd (from Stratagene) is cloned with the PCR-amplified ligand-binding domains of the mineralocorticoid receptor (MR, amino acids 734-985), of the glucocorticoid receptor (GR, amino acids 443-777), of the progesterone receptor (PR, amino acids 680-933) and of the androgen receptor (AR, amino acids 667-919) into the vector pIRES2 (from Clontech). The reporter construct, which comprises five copies of the GAL4 binding site upstream of a thymidine kinase promoter, leads to expression of firefly-luciferase (Photinus pyralis) after activation and binding of the GAL4-steroid hormone receptor chimeras by the respective specific agonists aldosterone (MR), dexamethasone (GR), progesterone (PR) and dihydrotestosterone (AR).
The MR, GR, PR and AR cells are plated out in medium (Optimem, 2.5% FCS, 2 mM glutamine, 10 mM HEPES) in 96- (or 384- or 1536-) well microtiter plates on the day before the assay and are kept in a cell incubator (96% humidity, 5% v/v CO2, 37° C.). On the day of the assay, the substances to be tested are taken up in the abovementioned medium and added to the cells. About 10 to 30 minutes after addition of the test substances, the respective specific agonists of the steroid hormone receptors are added. After a further incubation time of 5 to 6 hours, the luciferase activity is measured with the aid of a video camera. The measured relative light units as a function of the substance concentration result in a sigmoidal stimulation curve. The IC50 values are calculated with the aid of the GraphPad PRISM computer program (Version 3.02).

The IC50 is the concentration that gives 50% inhibition. Lower therefore signals greater potency. Turning to `COc1cc(C#N)ccc1C1C(C#N)=C(C)NC(C)=C1c1nc(C)cs1` (stereo not shown) [Example 1, 4-(4-Cyano-2-methoxyphenyl)-2,6-dimethyl-5-(4-methyl-1,3-thiazol-2-yl)-1,4-dihydropyridine-3-carbonitrile], the IC50 was found to be 94 nM.
To `COc1cc(C#N)ccc1C1C(C#N)=C(C(F)(F)F)NC(C)=C1c1nc(C)cs1` (stereo not shown) [Example 3, 4-(4-Cyano-2-methoxyphenyl)-6-methyl-5-(4-methyl-1,3-thiazol-2-yl)-2-(trifluoromethyl)-1,4-dihydropyridine-3-carbonitrile] belongs 10 nM.
Next, `CC1=C(C#N)C(c2cccc3c(=O)cc(C)oc23)C(c2nc(C)cs2)=C(C)N1` (stereo not shown) [Example 4, 2,6-Dimethyl-4-(2-methyl-4-oxo-4H-chromen-8-yl)-5-(4-methyl-1,3-thiazol-2-yl)-1,4-dihydro-pyridine-3-carbonitrile]: 95 nM; `COc1cc(C#N)ccc1C1C(C#N)=C(C)NC(C)=C1c1nc2ccccc2s1` (stereo not shown) [Example 12, 5-(1,3-Benzothiazol-2-yl)-4-(4-cyano-2-methoxyphenyl)-2,6-dimethyl-1,4-dihydropyridine-3-carbonitrile]: 74 nM.
Next, `CC1=C(C#N)C(c2cccc3ncc(C)cc23)C(c2nc(C)cs2)=C(C)N1` (stereo not shown) [Example 18, 2,6-Dimethyl-4-(3-methylquinolin-5-yl)-5-(4-methyl-1,3-thiazol-2-yl)-1,4-dihydropyridine-3-carbonitrile]: 278 nM.
On to `CCc1cnc(C2=C(C)NC(C)=C(C#N)C2c2ccc(C#N)cc2OC)s1` (stereo not shown) [Example 23, 4-(4-Cyano-2-methoxyphenyl)-5-(5-ethyl-1,3-thiazol-2-yl)-2,6-dimethyl-1,4-dihydropyridine-3-carbonitrile], for which the half-maximal inhibitory concentration (IC50) was 18 nM.
To `COc1cc(C#N)ccc1C1C(C#N)=C(C)NC(C)=C1c1nnc(C)s1` (stereo not shown) [Example 24, 4-(4-Cyano-2-methoxyphenyl)-2,6-dimethyl-5-(5-methyl-1,3,4-thiadiazol-2-yl)-1,4-dihydropyridine-3-carbonitrile] belongs 320 nM.
